Data as given in PubChem BioAssay (NCI).
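Each compound was tested at five concentrations against cells in 96-well plates for 48 hours. Here, GI50 denotes the concentration required for 50% inhibition of growth. TGI denotes the concentration required for complete inhibition of growth.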

Tests used:
Experiment in all cases: NCI anticancer screen, dose series, 48 h
IGROV1 ovarian = system: IGROV1 ovarian
A498 renal = system: A498 renal
KM12 colon = system: KM12 colon
NCI-H226 lung = system: NCI-H226 lung
NCI-H460 lung = system: NCI-H460 lung
A549 NSCLC = system: A549 NSCLC
HL-60(TB) leukemia = system: HL-60(TB) leukemia
HT29 colon = system: HT29 colon
MALME-3M melanoma = system: MALME-3M melanoma
UO-31 renal = system: UO-31 renal
K-562 leukemia = system: K-562 leukemia
SNB-19 CNS = system: SNB-19 CNS
NCI-H23 lung = system: NCI-H23 lung
HOP-62 NSCLC = system: HOP-62 NSCLC
SK-MEL-5 melanoma = system: SK-MEL-5 melanoma
ACHN renal = system: ACHN renal
UACC-257 melanoma = system: UACC-257 melanoma
OVCAR-3 ovarian = system: OVCAR-3 ovarian
SF-268 CNS = system: SF-268 CNS
UACC-62 melanoma = system: UACC-62 melanoma
T-47D breast = system: T-47D breast
OVCAR-8 ovarian = system: OVCAR-8 ovarian
MDA-MB-468 breast = system: MDA-MB-468 breast
NCI-H522 lung = system: NCI-H522 lung
LOX IMVI melanoma = system: LOX IMVI melanoma
EKVX NSCLC = system: EKVX NSCLC
TK-10 renal = system: TK-10 renal
SN12C renal = system: SN12C renal
RPMI-8226 leukemia = system: RPMI-8226 leukemia
DU-145 prostate = system: DU-145 prostate
SW-620 colon = system: SW-620 colon
HOP-92 NSCLC = system: HOP-92 NSCLC
SR leukemia = system: SR leukemia
HCT-15 colon = system: HCT-15 colon
MDA-MB-231 breast = system: MDA-MB-231 breast
HS 578T breast = system: HS 578T breast
HCT-116 colon = system: HCT-116 colon
SF-295 CNS = system: SF-295 CNS
SK-MEL-2 melanoma = system: SK-MEL-2 melanoma
BT-549 breast = system: BT-549 breast
786-0 renal = system: 786-0 renal
HCC-2998 colon = system: HCC-2998 colon
M14 melanoma = system: M14 melanoma
MDA-MB-435 = system: MDA-MB-435
OVCAR-4 ovarian = system: OVCAR-4 ovarian
MCF7 breast = system: MCF7 breast
CAKI-1 renal = system: CAKI-1 renal
SK-OV-3 ovarian = system: SK-OV-3 ovarian
U251 CNS = system: U251 CNS
RXF 393 renal = system: RXF 393 renal
MOLT-4 leukemia = system: MOLT-4 leukemia
PC-3 prostate = system: PC-3 prostate
COLO 205 colon = system: COLO 205 colon
SK-MEL-28 melanoma = system: SK-MEL-28 melanoma
CCRF-CEM leukemia = system: CCRF-CEM leukemia
OVCAR-5 ovarian = system: OVCAR-5 ovarian
SF-539 CNS = system: SF-539 CNS

For Cn1cc(-c2cc(N)n3nc(-c4c[nH]c5ccc(F)cc45)cc3n2)c2cccnc21, the GI50 (IGROV1 ovarian) was 2.24 µM, the TGI (IGROV1 ovarian) was 5.39 µM and the GI50 (A498 renal) was 17 µM. It also gave a TGI (A498 renal) of 30.9 µM, a GI50 (KM12 colon) of 2.5 µM and a TGI (KM12 colon) of 6.26 µM. For the same compound, the GI50 (NCI-H226 lung) was 1.92 µM, the TGI (NCI-H226 lung) was 4 µM and the GI50 (NCI-H460 lung) was 1.8 µM. It also gave a TGI (NCI-H460 lung) of 3.61 µM, a GI50 (A549 NSCLC) of 2.48 µM and a TGI (A549 NSCLC) of 7.91 µM. For the same compound, the GI50 (HL-60(TB) leukemia) was 1.9 µM, the TGI (HL-60(TB) leukemia) was 4.71 µM and the GI50 (HT29 colon) was 1.91 µM. For the same compound, the TGI (HT29 colon) was 3.85 µM, the GI50 (MALME-3M melanoma) was 1.75 µM and the TGI (MALME-3M melanoma) was 3.59 µM. The GI50 (UO-31 renal) was 1.66 µM, the TGI (UO-31 renal) was 3.24 µM and the GI50 (K-562 leukemia) was 3.42 µM. For the same compound, the TGI (K-562 leukemia) was 28.3 µM, the GI50 (SNB-19 CNS) was 4.05 µM and the TGI (SNB-19 CNS) was 16.2 µM. It also gave a GI50 (NCI-H23 lung) of 2.52 µM, a TGI (NCI-H23 lung) of 7.67 µM and a GI50 (HOP-62 NSCLC) of 8.69 µM. It also gave a TGI (HOP-62 NSCLC) of 21.2 µM, a GI50 (SK-MEL-5 melanoma) of 11.6 µM and a TGI (SK-MEL-5 melanoma) of 24.1 µM. It also gave a GI50 (ACHN renal) of 1.71 µM, a TGI (ACHN renal) of 3.23 µM and a GI50 (UACC-257 melanoma) of 14.8 µM. The TGI (UACC-257 melanoma) was 28 µM, the GI50 (OVCAR-3 ovarian) was 1.82 µM and the TGI (OVCAR-3 ovarian) was 3.69 µM. For the same compound, the GI50 (SF-268 CNS) was 11.6 µM, the TGI (SF-268 CNS) was 39.6 µM and the GI50 (UACC-62 melanoma) was 1.77 µM. It also gave a TGI (UACC-62 melanoma) of 3.34 µM, a GI50 (T-47D breast) of 2.9 µM and a TGI (T-47D breast) of 13.2 µM. The GI50 (OVCAR-8 ovarian) was 3.18 µM, the TGI (OVCAR-8 ovarian) was 11 µM and the GI50 (MDA-MB-468 breast) was 1.66 µM. It also gave a TGI (MDA-MB-468 breast) of 3.27 µM, a GI50 (NCI-H522 lung) of 13.8 µM and a TGI (NCI-H522 lung) of 27.4 µM. For the same compound, the GI50 (LOX IMVI melanoma) was 1.8 µM, the TGI (LOX IMVI melanoma) was 3.29 µM and the GI50 (EKVX NSCLC) was 3.47 µM. It also gave a TGI (EKVX NSCLC) of 14.9 µM, a GI50 (TK-10 renal) of 2.95 µM and a TGI (TK-10 renal) of 11.1 µM. For the same compound, the GI50 (SN12C renal) was 13.1 µM, the TGI (SN12C renal) was 26.2 µM and the GI50 (RPMI-8226 leukemia) was 2.43 µM. It also gave a TGI (RPMI-8226 leukemia) of 7.74 µM, a GI50 (DU-145 prostate) of 2.06 µM and a TGI (DU-145 prostate) of 4.4 µM. The GI50 (SW-620 colon) was 1.83 µM, the TGI (SW-620 colon) was 3.78 µM and the GI50 (HOP-92 NSCLC) was 14.2 µM. For the same compound, the TGI (HOP-92 NSCLC) was 39 µM, the GI50 (SR leukemia) was 2.8 µM and the TGI (SR leukemia) was over 100 µM. It also gave a GI50 (HCT-15 colon) of 1.82 µM, a TGI (HCT-15 colon) of 4.14 µM and a GI50 (MDA-MB-231 breast) of 1.92 µM. The TGI (MDA-MB-231 breast) was 3.7 µM, the GI50 (HS 578T breast) was 16.9 µM and the TGI (HS 578T breast) was 54.2 µM. For the same compound, the GI50 (HCT-116 colon) was 1.9 µM, the TGI (HCT-116 colon) was 3.6 µM and the GI50 (SF-295 CNS) was 1.69 µM. The TGI (SF-295 CNS) was 3.17 µM, the GI50 (SK-MEL-2 melanoma) was 12.6 µM and the TGI (SK-MEL-2 melanoma) was 25.2 µM. The GI50 (BT-549 breast) was 12.8 µM, the TGI (BT-549 breast) was 28.1 µM and the GI50 (786-0 renal) was 1.64 µM. For the same compound, the TGI (786-0 renal) was 3.11 µM, the GI50 (HCC-2998 colon) was 1.79 µM and the TGI (HCC-2998 colon) was 3.33 µM. The GI50 (M14 melanoma) was 1.88 µM, the TGI (M14 melanoma) was 4.01 µM and the GI50 (MDA-MB-435) was 1.92 µM. For the same compound, the TGI (MDA-MB-435) was 4.18 µM, the GI50 (OVCAR-4 ovarian) was 11.6 µM and the TGI (OVCAR-4 ovarian) was 30 µM. For the same compound, the GI50 (MCF7 breast) was 2.01 µM, the TGI (MCF7 breast) was 4.19 µM and the GI50 (CAKI-1 renal) was 2.21 µM. The TGI (CAKI-1 renal) was 6.42 µM, the GI50 (SK-OV-3 ovarian) was 18.1 µM and the TGI (SK-OV-3 ovarian) was 39.2 µM. It also gave a GI50 (U251 CNS) of 2 µM, a TGI (U251 CNS) of 4.1 µM and a GI50 (RXF 393 renal) of 1.77 µM. The TGI (RXF 393 renal) was 3.35 µM, the GI50 (MOLT-4 leukemia) was 2.42 µM and the TGI (MOLT-4 leukemia) was 7.73 µM. The GI50 (PC-3 prostate) was 3.26 µM, the TGI (PC-3 prostate) was 13.4 µM and the GI50 (COLO 205 colon) was 1.78 µM. The TGI (COLO 205 colon) was 3.46 µM, the GI50 (SK-MEL-28 melanoma) was 1.7 µM and the TGI (SK-MEL-28 melanoma) was 3.17 µM. For the same compound, the GI50 (CCRF-CEM leukemia) was 2.35 µM, the TGI (CCRF-CEM leukemia) was 7.74 µM and the GI50 (OVCAR-5 ovarian) was 3.33 µM. The TGI (OVCAR-5 ovarian) was 13.4 µM, the GI50 (SF-539 CNS) was 1.78 µM and the TGI (SF-539 CNS) was 3.25 µM.
